Test results taken from US4680389A, “Temperature stable crystalline di(1-methyl-2-pyrralidinone) and di(N-formylpyrrolidine) adducts of cephalosporin derivatives” (priority 1986, dated 1987).

Experiments:
[1] = Stabilities at elevated temperatures (percent potency loss by HPLC, dry containers); assay type: physicochemical
Description: Elevated temperature stabilities were determined by storing the preparations in dry containers (1 dram screw cap vials) at temperatures and for time periods as denoted below. Potency losses or gains were determined by HPLC. […] Each compound form tested was prepared in accordance with the example which is designated.

[2] = system: Rat; assay: Toxicity data (LD50) in rat; assay type: in vivo; settings: route not stated
Description: (§1) Toxicity data (LD50) was determined for the following compounds which are utilized in the instant invention or prepared according to the instant invention.

[3] = Toxicity data (LD50) in rat; assay type: in vivo; settings: in vivo, route not stated
Description: as §1

[4] = Stability in aqueous solution; assay type: physicochemical; settings: 250 mg/ml aqueous solution, ambient pH 4 to 5, at least six hours at 25° C.; 360 min
Text: These crystalline adducts display acceptable stability when they are placed in solution.

[5] = HPLC stability of Example 1 di(1-methyl-2-pyrrolidinone) adduct at 70° C.; assay type: physicochemical
Description: 1.0 g of the sulfuric acid addition salt of the zwitterion is vigorously slurried in 10 ml of 1-methyl-2-pyrrolidinone (NMP-2) at 25° C.-45° C. The crystalline mass is mixed with 0.49 ml (2.02 molar equivalents) of triethylamine (TEA) over a period of 0.5 to 1.5 hours. The mixture is seeded with 1-methyl-2-pyrrolidinone adduct and vigorously stirred for 6 to 24 hours. The crystals are then separated by vacuum filtration, washed with two 3 ml portions of 1-methyl-2-pyrrolidinone, two 5 ml portions of ether and vacuum dried at 45° to 55° C. for 2 hours.

[6] = system: various organisms; settings: cited from earlier work
[7] = elevated temperatures (e.g. 45° C. and above), one week, dry powder; 10080 min; cited from earlier work

CO/N=C(\C(=O)NC1C(=O)N2C(C(=O)[O-])=C(C[N+]3(C)CCCC3)CSC12)c1csc(N)n1 (centres unmarked) [Zwitterion (Amorphous), 7-[(Z)-2-methoxyimino-2-(2-aminothiazol-4-yl)acetamido]-3-[(1-methyl-1-pyrrolidinium)methyl]-3-cephem-4-carboxylate, reference compound]
PERCENT LOSS ([1]; 45° C., 1 week, 10080 min): 34.1%
PERCENT LOSS ([1]; 45° C., 4 weeks, 40320 min): 71%
PERCENT LOSS ([1]; 56° C., 1 week, 10080 min): 49.6%
PERCENT LOSS ([1]; 70° C., 1 day, 1440 min): 34.5%
PERCENT LOSS ([1]; 70° C., 2 days, 2880 min): 46.2%
PERCENT LOSS ([1]; 70° C., 3 days, 4320 min): 55.2%
degraded at 24 h ([1]; dry solid, 100° C., 1 day): 100%

CN1CCCC1=O [1-Methyl-2-pyrrolidinone, 1-methyl-2-pyrrolidinone]
Rat LD50 [2]: < 2500 mg/kg
LD50 [3]: > 2000 mg/kg

CN1CCCC1=O.CN1CCCC1=O.CO/N=C(\C(=O)NC1C(=O)N2C(C(=O)[O-])=C(C[N+]3(C)CCCC3)CSC12)c1csc(N)n1 (centres unmarked) [Di(1-methyl-2-pyrrolidinone) adduct, di(1-methyl-2-pyrrolidinone) adduct of 7-[(Z)-2-methoxyimino-2-(2-aminothiazol-4-yl)acetamido-]3-[(1-methyl-1-pyrrolidinium)methyl]-3-cephem-4-carboxylate]
Rat LD50 [2]: 663 mg/kg
PERCENT LOSS ([1]; 37° C., 3 months, 129600 min): 1.2%
PERCENT LOSS ([1]; 45° C., 4 weeks, 40320 min): 1.6%
PERCENT LOSS ([1]; 45° C., 6 weeks, 60480 min): 3.0%
PERCENT LOSS ([1]; 45° C., 8 weeks, 80640 min): 0-3%
PERCENT LOSS ([1]; 56° C., 1 week, 10080 min): 2.1%
PERCENT LOSS ([1]; 56° C., 2 weeks, 20160 min): 3.4%
PERCENT LOSS ([1]; 56° C., 4 weeks, 40320 min): 4.2%
PERCENT LOSS ([1]; 56° C., 6 weeks, 60480 min): 7.0%
PERCENT LOSS ([1]; 56° C., 8 weeks, 80640 min): 0.9%
PERCENT LOSS ([1]; 70° C., 1 day): 0%
PERCENT LOSS ([1]; 70° C., 2 days): 2.1%
PERCENT LOSS ([1]; 70° C., 3 days): 2.1%
PERCENT LOSS ([1]; 70° C., 5 days): 2.1%
PERCENT LOSS ([1]; 100° C., 1 day): 13-16%
potency loss in aqueous solution [4]: less than 10%
HPLC Stability % Loss ([5]; 1 Day): 0-2.3%
HPLC Stability % Loss ([5]; 3 Days): 5-6.5%

CO/N=C(\C(=O)NC1C(=O)N2C(C(=O)[O-])=C(C[N+]3(C)CCCC3)CSC12)c1csc(N)n1 (centres unmarked) [Zwitterion (Crystalline), 7-[(Z)-2-methoxyimino-2-(2-aminothiazol-4-yl)acetamido]-3-[(1-methyl-1-pyrrolidinium)methyl]-3-cephem-4-carboxylate]
temperature stability of crystalline vs amorphous form [1]: more temperature stable than the amorphous form
PERCENT LOSS ([1]; 37° C., 1 month, 43200 min): 20.0%
PERCENT LOSS ([1]; 45° C., 1 week, 10080 min): 14.2%
PERCENT LOSS ([1]; 56° C., 1 week, 10080 min): 25.6%
PERCENT LOSS ([1]; 56° C., 2 weeks, 20160 min): 30.0%
PERCENT LOSS ([1]; 70° C., 2 days, 2880 min): 13.5%
PERCENT LOSS ([1]; 70° C., 3 days, 4320 min): 20.5%
degraded at 336 h ([1]; dry solid, 45° C., 2 weeks): 23%

CO/N=C(\C(=O)NC1C(=O)N2C(C(=O)[O-])=C(C[N+]3(C)CCCC3)CSC12)c1csc(N)n1 (centres unmarked)
Rat LD50 ([2]; listed as Di(N--formyl pyrrolidine) adduct): 495 mg/kg
PERCENT LOSS ([1]; 37° C., 1 month, 43200 min, listed as Di(NFP) Adduct): 0%
PERCENT LOSS ([1]; 45° C., 1 week, 10080 min, listed as Di(NFP) Adduct): 0-3%
PERCENT LOSS ([1]; 45° C., 4 weeks, 40320 min, listed as Di(NFP) Adduct): 3.5-5.9%
PERCENT LOSS ([1]; 56° C., 1 week, 10080 min, listed as Di(NFP) Adduct): 7.1%
PERCENT LOSS ([1]; 56° C., 2 weeks, 20160 min, listed as Di(NFP) Adduct): 9.3%
PERCENT LOSS ([1]; 70° C., 1 day, listed as Di(NFP) Adduct, 1440 min): 1.5%
PERCENT LOSS ([1]; 70° C., 3 days, listed as Di(NFP) Adduct, 4320 min): 0-4.4%
degraded at 672 h ([1]; dry solid, 56° C., 4 weeks): 18.1%

O=CN1CCCC1 [N--Formyl pyrrolidine, N-formyl pyrrolidine]
Rat LD50 [2]: < 1000 mg/kg
LD50 [3]: > 500 mg/kg

CO/N=C(\C(=O)NC1C(=O)N2C(C(=O)[O-])=C(C[N+]3(C)CCCC3)CSC12)c1csc(N)n1 (centres unmarked) [Zwitterion, 7-[(Z)-2-methoxyimino-2-(2-aminothiazol-4-yl)acetamido]-3-[(1-methyl-1-pyrrolidinium)methyl]-3-cephem-4-carboxylate]
LD50 [3]: 665 mg/kg
utility against various organisms ([6]; data in U.S. Pat. No. 4,406,899): broad spectrum utility against various organisms
spectrum of activity compared with ceftazidime and cefotaxime ([6]; zwitterion form vs ceftazidime and cefotaxime): broader spectrum activity than ceftazidime and cefotaxime
loss of activity on storage [7]: ≥ 30%
